According to PubChem BioAssay AID743339 (Broad Institute, 2014):
Activity calls are given as the source filed them.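 The calls were made as follows: active = activation curve crossing 200% at or below the highest valid dose tested for that sample; inconclusive = flat curve with activation between 30 and 70%, or poor fit; inactive = the rest, including signal falling instead of rising.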

What follows are molecules tested against Leucyl-cystinyl aminopeptidase (Mus musculus) (UniProt Q8C129) (assay: activation of mouse IRAP aminopeptidase activity – biochemical, Leu-AMC fluorescence, cherry-picked samples, selectivity assay for ERAP1 modulator project, dose response (AID 743339)). Conditions: purified IRAP, Leu-AMC cleavage fluorescence, 1 h; at 11 µM (top of the series).
Sequence of Leucyl-cystinyl aminopeptidase (Mus musculus) (Q8C129 whole entry, looked up): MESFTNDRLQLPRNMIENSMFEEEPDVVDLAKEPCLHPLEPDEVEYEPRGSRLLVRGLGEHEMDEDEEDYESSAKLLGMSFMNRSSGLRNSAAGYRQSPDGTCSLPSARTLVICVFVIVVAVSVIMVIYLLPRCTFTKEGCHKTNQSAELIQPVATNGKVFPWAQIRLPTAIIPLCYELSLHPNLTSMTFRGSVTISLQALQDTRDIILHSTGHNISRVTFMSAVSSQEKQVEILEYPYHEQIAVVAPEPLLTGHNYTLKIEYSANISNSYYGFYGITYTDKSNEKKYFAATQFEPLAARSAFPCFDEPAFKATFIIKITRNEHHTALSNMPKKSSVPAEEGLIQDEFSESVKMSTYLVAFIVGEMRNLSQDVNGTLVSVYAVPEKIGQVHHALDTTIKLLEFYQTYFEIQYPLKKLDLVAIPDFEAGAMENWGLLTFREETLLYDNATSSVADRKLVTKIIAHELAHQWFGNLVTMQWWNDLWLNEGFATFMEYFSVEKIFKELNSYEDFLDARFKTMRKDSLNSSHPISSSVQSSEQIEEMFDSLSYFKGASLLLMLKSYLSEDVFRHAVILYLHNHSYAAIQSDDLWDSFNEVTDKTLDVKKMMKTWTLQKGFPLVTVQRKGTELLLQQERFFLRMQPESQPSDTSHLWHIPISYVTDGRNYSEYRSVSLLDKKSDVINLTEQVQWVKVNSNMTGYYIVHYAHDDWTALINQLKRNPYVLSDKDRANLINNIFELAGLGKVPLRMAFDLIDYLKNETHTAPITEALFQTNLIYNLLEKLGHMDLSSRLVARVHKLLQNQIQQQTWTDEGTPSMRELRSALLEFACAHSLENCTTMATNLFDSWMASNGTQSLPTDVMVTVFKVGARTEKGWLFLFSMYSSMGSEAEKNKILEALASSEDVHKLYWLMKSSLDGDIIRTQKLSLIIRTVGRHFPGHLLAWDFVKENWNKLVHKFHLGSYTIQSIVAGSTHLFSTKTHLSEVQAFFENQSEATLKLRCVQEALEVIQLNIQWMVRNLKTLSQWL

Row | SMILES | activation
1 | C[C@@H]1CCCCO[C@@H](CN(C)Cc2ccc(C(=O)O)cc2)[C@H](C)CN([C@@H](C)CO)C(=O)c2cc(NS(=O)(=O)c3ccc(Cl)cc3)ccc2O1 | -3.97% (inactive)
2 | C[C@@H]1CCCCO[C@H](CN(C)C)[C@H](C)CN([C@H](C)CO)C(=O)c2cc(NS(=O)(=O)c3ccc(Cl)cc3)ccc2O1 | 8.36% (inactive)
3 | CCC(=O)N(C)C[C@H]1Oc2ncc(C#Cc3ccncc3)cc2C(=O)N([C@H](C)CO)C[C@H]1C | 4.22% (inactive)
4 | COc1ccc2c3c([nH]c2c1)[C@H](CO)N(Cc1cc(F)ccc1F)CC31CN(C)C1 | 1.85% (inactive)
5 | COc1ccc(CN(C)C[C@H]2OCCCC[C@@H](C)Oc3ccc(NS(=O)(=O)c4cccs4)cc3C(=O)N([C@@H](C)CO)C[C@@H]2C)cc1 | 24.3% (inactive)
6 | Cc1noc(C)c1S(=O)(=O)Nc1ccc2c(c1)C(=O)N([C@H](C)CO)C[C@@H](C)[C@@H](CN(C)CC1CCCCC1)OCCCC[C@@H](C)O2 | 2.83% (inactive)
7 | COc1ccc(CN(C)C[C@@H]2OCCCC[C@@H](C)Oc3ccc(NS(=O)(=O)c4cccs4)cc3C(=O)N([C@H](C)CO)C[C@H]2C)cc1 | 3.48% (inactive)
8 | C[C@@H]1CCCCO[C@H](CN(C)Cc2ccc(C(=O)O)cc2)[C@@H](C)CN([C@H](C)CO)C(=O)c2cc(NC(=O)Nc3ccc(C(F)(F)F)cc3)ccc2O1 | 9.92% (inactive)
9 | C[C@@H]1CCCCO[C@H](CN(C)Cc2ccc(C(=O)O)cc2)[C@H](C)CN([C@@H](C)CO)C(=O)c2cc(NC(=O)Nc3ccc(C(F)(F)F)cc3)ccc2O1 | 11.1% (inactive)
10 | COc1ccc(NC(=O)Nc2ccc3c(c2)C(=O)N([C@H](C)CO)C[C@@H](C)[C@@H](CN(C)Cc2ccc(C(=O)O)cc2)OCCCC[C@@H](C)O3)cc1 | -5.71% (inactive)
11 | CCN(CCCl)c1cc(CN(C)C)cc(NC(=O)c2ccc(C(=O)Nc3cc(CN(C)C)cc(N(CC)CCCl)c3)cc2)c1 | -21% (inactive)
12 | CCCN(C)C[C@@H]1OCCCC[C@@H](C)Oc2ccc(NS(=O)(=O)c3ccc(F)cc3)cc2C(=O)N([C@H](C)CO)C[C@@H]1C | -17.1% (inactive)
13 | C[C@@H]1CCCCO[C@@H](CN(C)Cc2ccc3c(c2)OCO3)[C@@H](C)CN([C@H](C)CO)C(=O)c2cc(NS(=O)(=O)c3cccs3)ccc2O1 | -8.52% (inactive)
14 | COc1ccc(S(=O)(=O)Nc2ccc3c(c2)C(=O)N([C@@H](C)CO)C[C@H](C)[C@H](CN(C)C)OCCCC[C@@H](C)O3)cc1 | -2.35% (inactive)
15 | Cc1ccccc1-c1ccc2c(c1)O[C@@H](CN(C)Cc1ccc(C(=O)O)cc1)[C@@H](C)CN([C@@H](C)CO)S2(=O)=O | 4.16% (inactive)
16 | O=C(Nc1ccc(C(F)(F)F)cc1)N1[C@@H]2CNC[C@H]1C2c1ccc(-c2ccncc2)cc1 (stereo partly specified) | 4.27% (inactive)
17 | C[C@@H]1CN([C@H](C)CO)C(=O)c2cccc(NC(=O)Nc3ccccc3)c2O[C@@H]1CN(C)Cc1ccc(C(=O)O)cc1 | 17.7% (inactive)
18 | CC(=O)N1CCN(C(=O)C2(NC(=O)Nc3ccc(C)cc3)CCCCC2)CC1 | 10% (inactive)

Row | SMILES | activation
19 | COc1ccc(CN(C)C[C@@H]2OCCCC[C@@H](C)Oc3ccc(NS(=O)(=O)c4cccs4)cc3C(=O)N([C@H](C)CO)C[C@@H]2C)cc1 | 3.66% (inactive)
20 | C[C@H]1CN([C@@H](C)CO)C(=O)c2cccc(NC(=O)Nc3ccc(C(F)(F)F)cc3)c2O[C@@H]1CN(C)C | -7.32% (inactive)
21 | O=C(C[C@H]1CC[C@H]2[C@@H](COC[C@@H](O)CN2C(=O)Nc2cccc(Cl)c2)O1)N1CCCCC1 | 16.9% (inactive)
22 | C[C@H](CO)N1C[C@H](C)[C@H](CN(C)Cc2ccc(C(=O)O)cc2)Oc2c(NC(=O)Nc3ccccc3)cccc2C1=O | 24.2% (inactive)
23 | COc1cccc(S(=O)(=O)N(C)C[C@@H]2Oc3ncccc3C(=O)N([C@H](C)CO)C[C@@H]2C)c1 | 79.6% (inactive)
24 | COc1ccc(CN(C)C[C@@H]2OCCCC[C@@H](C)Oc3ccc(NS(=O)(=O)c4c(C)noc4C)cc3C(=O)N([C@@H](C)CO)C[C@@H]2C)cc1 | -18.2% (inactive)
25 | CNC[C@H]1OCCCC[C@@H](C)Oc2ccc(NS(=O)(=O)c3ccc(C)cc3)cc2C(=O)N([C@@H](C)CO)C[C@H]1C | -8.83% (inactive)
26 | C[C@H](CO)N1C[C@H](C)[C@H](CN(C)CC2CCCCC2)Oc2c(NC(=O)Nc3ccc4c(c3)OCO4)cccc2C1=O | -3.26% (inactive)
27 | O=C(CSc1cn[nH]n1)Nc1cccc(C(=O)O)c1 | 17.4% (inactive)
28 | C[C@@H]1CCCCO[C@@H](CN(C)Cc2ccccc2)[C@H](C)CN([C@H](C)CO)C(=O)c2cc(NS(=O)(=O)c3cccs3)ccc2O1 | -6.87% (inactive)
29 | CCC(=O)N(C)C[C@@H]1Oc2ncc(C#Cc3ccncc3)cc2C(=O)N([C@@H](C)CO)C[C@@H]1C | 2.82% (inactive)
30 | CCCN(C)C[C@@H]1OCCCC[C@@H](C)Oc2ccc(NS(=O)(=O)c3ccccc3)cc2C(=O)N([C@H](C)CO)C[C@@H]1C | -6.67% (inactive)
31 | C[C@@H]1CCCCO[C@@H](CN(C)C)[C@@H](C)CN([C@@H](C)CO)C(=O)c2cc(NS(=O)(=O)c3ccc(Cl)cc3)ccc2O1 | -6.93% (inactive)
32 | COc1ccc(CN(C)C[C@H]2OCCCC[C@@H](C)Oc3ccc(NS(=O)(=O)c4cccs4)cc3C(=O)N([C@H](C)CO)C[C@H]2C)cc1 | 10% (inactive)
33 | COc1ccc(CN(C)C[C@@H]2OCCCC[C@H](C)Oc3ccc(NS(=O)(=O)c4cccs4)cc3C(=O)N([C@@H](C)CO)C[C@@H]2C)cc1 | 10.9% (inactive)
34 | O=C(C[C@@H]1CC[C@@H]2[C@H](COC[C@H](O)CN2C(=O)Nc2cccc(Cl)c2)O1)N1CCCCC1 | 7.14% (inactive)
35 | C[C@@H]1CCCCO[C@@H](CN(C)CC2CCCCC2)[C@H](C)CN([C@@H](C)CO)C(=O)c2cc(NC(=O)Nc3ccccc3)ccc2O1 | -13.9% (inactive)
36 | N#Cc1c(N2CCNCC2)nc(-c2ccco2)c2c1CCCC2 | 56.4% (inactive)
